Measured values from patent US20240287124A1, “PRODRUGS OF 4'-SUBSTITUTED NUCLEOSIDE REVERSE TRANSCRIPTASE INHIBITORS” (Merck Sharp & Dohme LLC, priority 2023, published 2024).
pIC50: −log10 of the molar value. ≈ marks a conversion by molar mass, not a printed value.

Key:
[1] = Aqueous solubility in PBS, pH 7.4; type: physicochemical; conditions: phosphate buffered saline, pH 7.4, aqueous buffer, thermodynamic from solid, pH 7.4 phosphate buffered saline, 24 hours, amorphous or crystalline material; read-out: Aqu. Solubility
Summary of the method: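 Excess solid suspended at 0.5 mg/mL in PBS pH 7.4 and stirred 24 hours. Filtrate (0.45 μm) diluted 1:1 with ACN:H2O and quantified by UPLC against a standard curve; residual solid phase checked by XRPD and PLM.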

[2] = system: HIV-1 wild-type (R8) virus; assay: Viral KINetics in Green cells (VIKING) assay, HIV-1 replication in MT4-GFP reporter cells; type: cell-based; conditions: Human immunodeficiency virus 1, 10% normal human serum, MT4-GFP cells, HIV-1 wild-type (R8); read-out: Viking (10% NHS), IC50
Summary of the method: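 MT4-GFP cells infected overnight with HIV-1 R8 at MOI ~0.01, then added to compound plates in RPMI with 10% normal human serum; 10-point 3-fold dilutions (typically 4 μM-0.2 nM). Green cells counted at ~48 h and 72 h; reproductive ratio (72 h/48 h) gave % inhibition, IC50 by 4-parameter fit.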

Structure (SMILES)	solubility at 24 h [1]	pIC50 [2]
C#C[C@]1(CO)O[C@@H](n2ccc3c(N)nc(Cl)nc32)C[C@@H]1OC(=O)OCCC12CC3CC(CC(C3)C1)C2 [Example 36, 2-(adamantan-1-yl)ethyl ((2R,3S,5R)-5-(4-amino-2-chloro-7H-pyrrolo[2,3-d]pyrimidin-7-yl)-2-ethynyl-2-(hydroxymethyl)tetrahydrofuran-3-yl) carbonate]	< 1 µg/mL	8.26
C#C[C@]1(CO)O[C@@H](n2ccc3c(N)nc(Cl)nc32)C[C@@H]1OC(=O)CCCCCCCCCCCCC [Example 26, (2R,3S,5R)-5-(4-amino-2-chloro-7H-pyrrolo[2,3-d]pyrimidin-7-yl)-2-ethynyl-2-(hydroxymethyl)tetrahydrofuran-3-yl tetradecanoate]	< 1 µg/mL	8.15
C#C[C@]1(CO)O[C@@H](n2ccc3c(N)nc(Cl)nc32)C[C@@H]1OC(=O)OCC1CCCCC1 [Example 154]	< 1 µg/mL	8.46
C#C[C@]1(COC(=O)CCCCCCC)O[C@@H](n2ccc3c(N)nc(Cl)nc32)C[C@@H]1O [Example 57, ((2R,3S,5R)-5-(4-amino-2-chloro-7H-pyrrolo[2,3-d]pyrimidin-7-yl)-2-ethynyl-3-hydroxytetrahydrofuran-2-yl)methyl octanoate]	5 µg/mL (≈ 11.5 µM)	8.59
C#C[C@]1(COCOC(=O)C(C)C)O[C@@H](n2ccc3c(N)nc(Cl)nc32)C[C@@H]1O [Example 54, (((2R,3S,5R)-5-(4-amino-2-chloro-7H-pyrrolo[2,3-d]pyrimidin-7-yl)-2-ethynyl-3-hydroxytetrahydrofuran-2-yl)methoxy)methyl isobutyrate]	247 µg/mL (≈ 604 µM)	8.82
C#C[C@]1(COC(=O)OCc2ccccc2)O[C@@H](n2ccc3c(N)nc(Cl)nc32)C[C@@H]1O [Example 114, ((2R,3S,5R)-5-(4-amino-2-chloro-7H-pyrrolo[2,3-d]pyrimidin-7-yl)-2-ethynyl-3-hydroxytetrahydrofuran-2-yl)methyl benzyl carbonate]	66 µg/mL (≈ 149 µM)	8.41
C#C[C@]1(CO)O[C@@H](n2ccc3c(N)nc(Cl)nc32)C[C@@H]1OC(=O)CCc1ccccc1 [Example 81]	2 µg/mL (≈ 4.54 µM)	8.48
C#C[C@]1(COC(=O)CCCCCCCCCCCCC)O[C@@H](n2ccc3c(N)nc(Cl)nc32)C[C@@H]1O [Example 87]	< 1 µg/mL	8.42
C#C[C@]1(COC(=O)OCc2ccn(C)c(=O)c2)O[C@@H](n2ccc3c(N)nc(Cl)nc32)C[C@@H]1OC(=O)OCc1ccn(C)c(=O)c1 [Example 226]	19 µg/mL (≈ 29.7 µM)	7.89
C#C[C@]1(CO)O[C@@H](n2ccc3c(N)nc(Cl)nc32)C[C@@H]1OC(=O)OCCOC(C)=O [Example 156]	66 µg/mL (≈ 150 µM)	8.49
C#C[C@]1(CO)O[C@@H](n2ccc3c(N)nc(Cl)nc32)C[C@@H]1OC(=O)OCCCCC[C@@H]1SC[C@@H]2NC(=O)N[C@@H]21 [Example 160]	< 1 µg/mL	7.96
C#C[C@]1(CO)O[C@@H](n2ccc3c(N)nc(Cl)nc32)C[C@@H]1OC(=O)CCCCCCCC [Example 55, (2R,3S,5R)-5-(4-amino-2-chloro-7H-pyrrolo[2,3-d]pyrimidin-7-yl)-2-ethynyl-2-(hydroxymethyl)tetrahydrofuran-3-yl nonanoate]	< 1 µg/mL	8.66
C#C[C@]1(COC(=O)OCCCCCCC)O[C@@H](n2ccc3c(N)nc(Cl)nc32)C[C@@H]1O [Example 121]	7 µg/mL (≈ 15.5 µM)	8.51
C#C[C@]1(CO)O[C@@H](n2ccc3c(N)nc(Cl)nc32)C[C@@H]1OC(=O)CCCCCCCCC [Example 4, (2R,3S,5R)-5-(4-amino-2-chloro-7H-pyrrolo[2,3-d]pyrimidin-7-yl)-2-ethynyl-2-(hydroxymethyl)tetrahydrofuran-3-yl decanoate]	< 1 µg/mL	8.54
C#C[C@]1(COC(=O)CC(C)(C)C)O[C@@H](n2ccc3c(N)nc(Cl)nc32)C[C@@H]1O [Example 89]	365 µg/mL (≈ 897 µM)	7.54
